The source of these data is US20100316590A1, “COMPOSITIONS AND METHODS RELATED TO POLOXAMER COPOLYMER MEMBRANE SEALANT” (THE BOARD OF REGENTS OF THE UNIVERSITY OF TEXAS SYSTEM, priority 2009, published 2010).

This data set concerns SH-SY5Y human neuroblastoma cells.

As to poloxamer 188 [Poloxamer P188], the “reduction in cell viability of cells treated with P188 alone compared to untreated controls” value was “not statistically significant”. Consider poloxamer 407 [Poloxamer P407], for which the “toxicity of poloxamer on its own to the cells compared to untreated controls” value is listed as “non-toxic”.
